We go through 13 molecules from patent US10087242B2 (INSTITUT PASTEUR, priority 2007, dated 2018).

Holding throughout (type): binding, mouse
In experiment [1] the test system is mIgG G7-12. The experiment is described as follows: inhibition ELISA: oligosaccharide inhibits fixation of mIgG G7-12 on LPS 3a. To be noted: concentration of oligosaccharide giving 50% inhibition of fixation of the mAb on LPS 3a (S. flexneri 3a). On the procedure:
(§1) The oligosaccharide determinants recognized by the four mAbs obtained were characterized by measuring, by inhibition ELISA, the interaction of the various oligosaccharides synthesized with these mAbs.
(§2) 1) First, a standard curve OD=f(concentration of the mAb) was established for each antibody.
(§3) For this, purified LPS from S. flexneri 3a was fixed in the wells of ELISA plates (96-well plate), at a concentration of 25 μg/ml in a carbonate buffer pH 9.6, at 4° C., overnight.
(§4) After washing the wells with a solution of PBS/ Tween 20 (0.05%) 1% and a stage of saturation with PBS/BSA 1% for 30 minutes at 4° C., various concentrations of each mAb were incubated for 30 minutes at 4° C. After a washing stage, a secondary antibody coupled to alkaline phosphatase and specific to the mouse IgGs or IgMs was added at a dilution of 1/5000 (Sigma-Aldrich) for 1 h at 37° C. After washing, the enzymatic reaction was carried out with the specific substrate of alkaline phosphatase (12 mg of p-nitrophenylphosphate in 1.2 ml of Tris-HCl buffer 1M (pH 8.8) and 10.8 ml of 5M NaCl). Once the color reaction had developed, the plates were read at 405 nm (Dynatech MR 4000 plate reader). The standard curve OD =f(Ab concentration) was refined with the equation Y=aX2+bX+c, where Y corresponds to the OD and X to the antibody concentration. A correlation factor (r2) of 0.99 was generally obtained.
(§5) 2) The concentration of oligosaccharide capable of inhibiting 50% of the fixation of the mAb on LPS 3a was then determined as follows.
(§6) Each mAb was used at a given concentration, defined as the first concentration tested giving a maximum OD on the standard curve (the first point at the start of the plateau of the curve). Various concentrations of each of the oligosaccharides to be tested were then incubated separately with the mAb at constant concentration, overnight at 4° C., in 1% PBS-BSA buffer. Measurement of the free antibody concentration was carried out as stated above, after incubation of the mAb/oligosaccharide mixtures at 4° C. for 30 minutes on plates covered with LPS 3a and using the standard curve obtained in parallel on the same plate. For each mAb and each oligosaccharide, a value called IC50 was then calculated, corresponding to the concentration of oligosaccharide permitting 50% inhibition of the fixation of the mAb on LPS 3a.
(In an ELISA, binding on a coated surface is turned into a signal by an enzyme label.)

Experiment [2] relates to mIgG C7-37. The experiment is described as follows: inhibition ELISA: oligosaccharide inhibits fixation of mIgG C7-37 on LPS 3a. To be noted: concentration of oligosaccharide giving 50% inhibition of fixation of the mAb on LPS 3a (S. flexneri 3a). On the procedure:
as §1, §2, §3, §4, §5, §6

Experiment [3] deals with IgM (G 19-2). The experiment is described as follows: inhibition ELISA: oligosaccharide inhibits fixation of IgM G19-2 on LPS 3a. To be noted: for IC50: concentration of oligosaccharide giving 50% inhibition of fixation of the mAb on LPS 3a (S. flexneri 3a), inhibition ELISA; for recognition by the mIgM antibody (and by the mIgGs): summary in words of tables 1 and 2, interaction weaker than with the mIgGs. Here is the method:
Protocol 2) Ten Balb/C mice and four BP2 mice were immunized by i.p. injection with virulent live bacteria of the strain S. flexneri 3a, every three weeks, using 2×10^6 bacteria for the first 2 immunizations and 5×10^6 for the next 4. As the anti-LPS 3a antibody response was too weak for performing cellular fusion, an additional series of 4 injections was carried out. Two mAbs of type IgM, G19-2 and L18-9, were obtained.
as §1, §2, §3, §4, §5, §6

Where only a bound is given, the exact number is not on record here.

With `CCCO[C@@H]1O[C@H](CO)[C@@H](O)[C@H](O[C@@H]2O[C@@H](C)[C@H](O)[C@@H](O[C@@H]3O[C@@H](C)[C@H](O)[C@@H](O)[C@H]3O[C@@H]3O[C@@H](C)[C@H](O)[C@@H](O[C@H]4O[C@H](CO)[C@@H](O)[C@H](O)[C@H]4O)[C@H]3O)[C@H]2O)[C@H]1NC(C)=O` [EABCD-OPr, Propyl α-D-glucopyranosyl-(1→3)-α-L-rhamnopyranosyl-(1→2)-α-L-rhamnopyranosyl-(1→3)-α-L-rhamnopyranosyl-(1→3)-2-acetamido-2-deoxy-β-D-glucopyranoside], the IC50 (as a rule, the concentration needed to halve the response being measured) in experiment [1] is above 2500 µM; in experiment [2], above 1000 µM; in experiment [3] it was above 2500 µM.
`CCCO[C@@H]1O[C@@H](C)[C@H](O)[C@@H](O[C@@H]2O[C@@H](C)[C@H](O)[C@@H](O)[C@H]2O[C@@H]2O[C@@H](C)[C@H](O)[C@@H](O[C@H]3O[C@H](CO)[C@@H](O)[C@H](O)[C@H]3O)[C@H]2O[C@@H]2O[C@H](CO)[C@@H](O)[C@H](O)[C@H]2NC(C)=O)[C@H]1OC(C)=O` [DEABC(2-OAc)-OPr, Propyl (2-acetamido-2-deoxy-β-D-glucopyranosyl)-(1→2)-[α-D-glucopyranosyl-(1→3)]-α-L-rhamnopyranosyl-(1→2)-α-L-rhamnopyranosyl-(1→3)-2-O-acetyl-α-rhamnopyranoside]: the IC50 in experiment [1] and in experiment [3] was above 2500 µM throughout.
With `CCCO[C@@H]1O[C@@H](C)[C@H](O)[C@@H](O[C@@H]2O[C@@H](C)[C@H](O)[C@@H](O)[C@H]2O[C@@H]2O[C@@H](C)[C@H](O)[C@@H](O[C@H]3O[C@H](CO)[C@@H](O)[C@H](O)[C@H]3O)[C@H]2O)[C@H]1OC(C)=O` [EABC(2-OAc)-OPr, Propyl α-D-glucopyranosyl-(1→3)-α-L-rhamnopyranosyl-(1→2)-α-L-rhamnopyranosyl-(1→3)-2-O-acetyl-α-L-rhamnopyranoside], the IC50 in experiment [1] worked out at 450 µM; in experiment [2], 410 µM; in experiment [3], 1430 µM. Moreover, the “recognition by the mIgM antibody (and by the mIgGs)” value (“recognition by the mIgM antibody” below) in experiment [3] is “recognized”.
For `CCCO[C@@H]1O[C@@H](C)[C@H](O)[C@@H](O)[C@H]1O[C@@H]1O[C@@H](C)[C@H](O)[C@@H](O[C@H]2O[C@H](CO)[C@@H](O)[C@H](O)[C@H]2O)[C@H]1O[C@@H]1O[C@H](CO)[C@@H](O)[C@H](O)[C@H]1NC(C)=O` [DEAB-OPr, Propyl 2-acetamido-2-deoxy-β-D-glucopyranosyl-(1→2)-[α-D-glucopyranosyl-(1→3)]-α-L-rhamnopyranosyl-(1→2)-α-L-rhamnopyranoside], the IC50 in experiment [1] was above 2500 µM; in experiment [2], above 5000 µM; in experiment [3] it was above 2500 µM.
For the molecule `CCCO[C@@H]1OC(CO)[C@@H](O)C(O[C@@H]2OC(C)[C@H](O)C(O[C@@H]3OC(C)[C@H](O)C(O)C3O[C@@H]3OC(C)[C@H](O)C(O[C@H]4OC(CO)[C@@H](O)C(O)C4O)C3O)C2OC(C)=O)C1NC(C)=O` (stereo partly drawn) [EABC(2-OAc)D-OPr, Propyl α-D-glucopyranosyl-(1→3)-α-L-rhamnopyranosyl-(1→2)-α-L-rhamnopyranosyl-(1→3)-(2-O-acetyl-α-L-rhamnopyranosyl)-(1→3)-2-acetamido-2-deoxy-β-D-glucopyranoside], the figures for the IC50 in experiment [1], in experiment [2] and in experiment [3] were 315 µM, 280 µM and 1280 µM, respectively. In addition, the “recognition by the mIgM antibody” value in experiment [3] was “recognized”.
As for `CCCO[C@@H]1O[C@@H](C)[C@H](O)[C@@H](O[C@@H]2O[C@@H](C)[C@H](O)[C@@H](O)[C@H]2O[C@@H]2O[C@@H](C)[C@H](O)[C@@H](O[C@H]3O[C@H](CO)[C@@H](O)[C@H](O)[C@H]3O)[C@H]2O)[C@H]1O` [EABC-Opr, Propyl α-D-glucopyranosyl-(1→3)-α-L-rhamnopyranosyl-(1→2)-α-L-rhamnopyranosyl-(1→3)-α-L-rhamnopyranoside], the 50% inhibitory concentration (IC50) is above 2500 µM in experiment [1], above 5000 µM in experiment [2] and above 2500 µM in experiment [3].
“Propyl (2/3-O-acetyl-α-L-rhamnopyranosyl)-(1→3)-(2-acetamido-2-deoxy-β-D-glucopyranosyl)-(1→2)-(α-D-glucopyranosyl-(1→3)-α-L-rhamnopyranoside [C(2-OAc)DEA-OPr]”: the IC50 in experiment [1] is above 2500 µM; in experiment [2], above 5000 µM; in experiment [3], above 2500 µM.
With `CCCO[C@@H]1OC(C)[C@H](O)C(O)C1O[C@@H]1OC(C)[C@H](O)C(O[C@H]2OC(CO)[C@@H](O)C(O)C2O)C1O[C@@H]1OC(CO)[C@@H](O)C(O[C@@H]2OC(C)[C@H](O)C(O)C2OC(C)=O)C1NC(C)=O` (stereo partly drawn) [C(2,3-OAc)D(E)AB-OPr, Propyl (2-O-acetyl-α-L-rhamnopyranosyl)-(1→3)-(2-acetamido-2-deoxy-β-D-glucopyranosyl)-(1→2)-[α-D-glucopyranosyl-(1→3)]-α-L-rhamnopyranosyl-(1→2)-α-L-rhamnoyranoside], the IC50 in experiment [1] is above 2500 µM; in experiment [2], above 5000 µM; in experiment [3], above 2500 µM.
Turning to `CCCO[C@@H]1OC(C)[C@H](O)[C@H](O[C@H]2O[C@@H](CO)[C@@H](O)C(O)C2O)C1O[C@@H]1OC(CO)[C@@H](O)C(O)[C@@H]1NC(C)=O` (stereo partly drawn), the IC50 was above 2500 µM in experiment [1], above 5000 µM in experiment [2] and above 2500 µM in experiment [3].
For `CCCO[C@@H]1O[C@@H](C)[C@H](O)[C@@H](O[C@H]2O[C@H](CO)[C@@H](O)[C@H](O)[C@H]2O)[C@H]1O` [EA-OPr, Propyl α-D-glucopyranosyl- (1→3)-α-L-rhamnopyranoside], the IC50 was above 2500 µM in experiment [1], above 5000 µM in experiment [2] and above 2500 µM in experiment [3].
With `CCCO[C@@H]1OC(C)[C@H](O)C(O[C@H]2OC(CO)[C@@H](O)C(O)C2O)C1O[C@@H]1OC(CO)[C@@H](O)C(O[C@@H]2OC(C)[C@H](O)C(O[C@@H]3OC(C)[C@H](O)C(O)C3O)C2O)C1NC(C)=O` (stereo partly drawn) [BCDEA-Opr, Propyl α-L-rhamnopyranosyl-(1→3)-α-L-rhamnopyranosyl-(1→3)-(2-acetamido-2-deoxy-β-D-glucopyranosyl)-(1→2)-[α-D-glucopyranosyl-(1→3)]-α-L-rhamnopyranoside], the figures for the IC50 in experiment [1], in experiment [2] and in experiment [3] were above 2500 µM, above 1000 µM and above 2500 µM, respectively.
As for `CCCO[C@@H]1OC(C)[C@H](O)C(O)C1O[C@@H]1OC(C)[C@H](O)C(O[C@H]2OC(CO)[C@@H](O)C(O)C2O)C1O[C@@H]1OC(CO)[C@@H](O)C(O[C@@H]2OC(C)[C@H](O)C(O[C@@H]3OC(C)[C@H](O)C(O)C3O)C2OC(C)=O)C1NC(C)=O` (stereo partly drawn) [BC(2-OAc)D(E)AB-OPr, Propyl α-L-rhamnopyranosyl-(1→3)-(2-O-acetyl-α-L-rhamnopyranosyl)-(1→3)-(2-acetamido-2-deoxy-β-D-glucopyranosyl)-(1→2)-[α-D-glucopyranosyl-(1→3)]-α-L-rhamnopyranosyl-(1→2)-α-L-rhamnopyranoside], the figures for the IC50 in experiment [1], in experiment [2] and in experiment [3] were 205 µM, 230 µM and 2200 µM, respectively. Also, the “recognition by the mIgM antibody” value in experiment [3] is “recognized”.
The like results for `CCCO[C@@H]1OC(C)[C@H](O)C(O[C@H]2OC(CO)[C@@H](O)C(O)C2O)C1O[C@@H]1OC(CO)[C@@H](O)C(O[C@@H]2OC(C)[C@H](O)C(O[C@@H]3OC(C)[C@H](O)C(O)C3O)C2OC(C)=O)C1NC(C)=O` (stereo partly drawn) [BCDEA-Opr-Oac, Propyl α-L-rhamnopyranosyl-(1→3)-(2-O-acetyl-α-L-rhamnopyranosyl)-(1→3)-(2-acetamido-2-deoxy-β-D-glucopyranosyl)-(1→2)-[α-D-glucopyranosyl-(1→3)]-α-L-rhamnopyranoside] were, in that order, 175 µM, 195 µM, 1980 µM and “recognized”.
